Reference: ChEMBL document CHEMBL1131863, “Synthesis and antibacterial activity of HMR 3647 a new ketolide highly potent against erythromycin-resistant and susceptible pathogens” (1999)
In brackets after ≈: the same amount, converted by molar mass.

Legend:
Assay type in all cases: functional
[1] = system: Escherichia coli; assay: The compound was tested in vitro for antibacterial activity against Escherichia coli 250 UCS.
[2] = system: Streptococcus pneumoniae; assay: The compound was tested in vitro for antibacterial activity against constitutively erythromycin resistant Streptococcus pneumoniae 030CR18c.
[3] = system: Staphylococcus aureus; assay: The compound was tested in vitro for antibacterial activity against inducibly erythromycin resistant Staphylococcus aureus 011GO25i.
[4] = system: Streptococcus pyogenes; assay: The compound was tested in vitro for antibacterial activity against erythromycin susceptible Streptococcus pyogenes 02A1UC1.
[5] = system: Staphylococcus aureus; assay: The compound was tested in vitro for antibacterial activity against constitutively erythromycin resistant Staphylococcus aureus 011CB20.
[6] = system: Streptococcus pneumoniae; assay: The compound was tested in vitro for antibacterial activity against inducibly erythromycin resistant Streptococcus pneumoniae 030J5i.
[7] = system: Streptococcus pneumoniae; assay: The compound was tested in vitro for antibacterial activity against erythromycin susceptible Streptococcus pneumoniae 032UC1.
[8] = system: Streptococcus pneumoniae; assay: The compound was tested in vitro for antibacterial activity against constitutively erythromycin resistant Streptococcus pneumoniae 030SJ1.
[9] = system: Haemophilus influenzae; assay: The compound was tested in vitro for antibacterial activity against Haemophilus influenza 351HT3.
[10] = system: Staphylococcus aureus; assay: The compound was tested in vitro for antibacterial activity against erythromycin susceptible Staphylococcus aureus 011UC4.
[11] = system: Streptococcus pneumoniae; assay: The compound was tested in vitro for antibacterial activity against constitutively erythromycin resistant Streptococcus pneumoniae 030PW23c.
[12] = system: Staphylococcus aureus; assay: The compound was tested in vitro for antibacterial activity against inducibly erythromycin resistant Staphylococcus aureus 011GO25i
[13] = system: Staphylococcus aureus; assay: The compound was tested in vitro for antibacterial activity against erythromycin susceptible Staphylococcus aureus 011UC4
[14] = system: Streptococcus pneumoniae; assay: The compound was tested in vitro for antibacterial activity against erythromycin susceptible Streptococcus pneumoniae 032UC1
[15] = system: Streptococcus pyogenes; assay: The compound was tested in vitro for antibacterial activity against erythromycin susceptible Streptococcus pyogenes 02A1UC1
[16] = system: Staphylococcus aureus; assay: The compound was tested in vitro for antibacterial activity against constitutively erythromycin resistant Staphylococcus aureus 011CB20
[17] = system: Streptococcus pneumoniae; assay: The compound was tested in vitro for antibacterial activity against constitutively erythromycin resistant Streptococcus pneumoniae 030CR18c
[18] = system: Haemophilus influenzae; assay: The compound was tested in vitro for antibacterial activity against Haemophilus influenza 351HT3
[19] = system: Streptococcus pneumoniae; assay: The compound was tested in vitro for antibacterial activity against constitutively erythromycin resistant Streptococcus pneumoniae 030SJ1
[20] = system: Streptococcus pneumoniae; assay: The compound was tested in vitro for antibacterial activity against inducibly erythromycin resistant Streptococcus pneumoniae 030J5i
[21] = system: Streptococcus pneumoniae; assay: The compound was tested in vitro for antibacterial activity against constitutively erythromycin resistant Streptococcus pneumoniae 030PW23c
[22] = system: Escherichia coli; assay: The compound was tested in vitro for antibacterial activity against Escherichia coli 250 UCS
[23] = system: Mus musculus; assay: The compound was tested in vivo for antibacterial activity against erythromycin susceptible Staphylococcus aureus 011UC4 in mice after oral administration
[24] = system: Mus musculus; assay: The compound was tested in vivo for antibacterial activity against constitutively erythromycin resistant Streptococcus pneumoniae 030SJ1 in mice after oral administration
[25] = system: Mus musculus; assay: The compound was tested in vivo for antibacterial activity against constitutively erythromycin resistant Streptococcus pneumoniae 030Cr29 in mice after oral administration
[26] = system: Mus musculus; assay: The compound was tested in vivo for antibacterial activity against AmpR beta(+) Haemophilus influenza 351RD7 in mice after oral administration
[27] = system: Mus musculus; assay: The compound was tested in vivo for antibacterial activity against AmpR beta(-) Haemophilus influenza 351TO19 in mice after oral administration
[28] = system: Mus musculus; assay: The compound was tested in vivo for antibacterial activity against inducibly erythromycin resistant Staphylococcus aureus 011GO3 in mice after oral administration
[29] = system: Mus musculus; assay: The compound was tested in vivo for antibacterial activity against Haemophilus influenza 351GR1 in mice after oral administration
[30] = system: Mus musculus; assay: The compound was tested in vivo for antibacterial activity against constitutively erythromycin resistant Streptococcus pneumoniae 030MV2 in mice after oral administration
[31] = system: Mus musculus; assay: The compound was tested in vivo for antibacterial activity against erythromycin susceptible Streptococcus pyogenes 02A1UC1 in mice after oral administration
[32] = system: Mus musculus; assay: The compound was tested in vivo for antibacterial activity against erythromycin susceptible Streptococcus pneumoniae 032UC1 in mice after oral administration
[33] = system: Mus musculus; assay: The compound was tested in vivo for antibacterial activity against inducibly erythromycin resistant Streptococcus pneumoniae 030RO1 in mice after oral administration
[34] = system: Mus musculus; assay: The compound was tested in vivo for antibacterial activity against constitutively erythromycin resistant Streptococcus pneumoniae 030SJ6 in mice after oral administration

## CC[C@H]1OC(=O)[C@H](C)C(=O)[C@H](C)[C@@H](O[C@@H]2O[C@H](C)C[C@H](N(C)C)[C@H]2O)[C@](C)(OC)C[C@@H](C)C(=O)[C@H](C)[C@H]2N(CCCCn3nnnc3-c3ccccc3)C(=O)O[C@]12C
[1]
  MIC: 20 µg/mL (≈ 24.6 µM)
[2]
  MIC: 1.2 µg/mL (≈ 1.48 µM)
[3]
  MIC: 0.6 µg/mL (≈ 0.738 µM)
[4]
  MIC: 0.02 µg/mL (≈ 0.0246 µM)
[5]
  MIC: 40 µg/mL (≈ 49.2 µM)
[6]
  MIC: 0.02 µg/mL (≈ 0.0246 µM)
[7]
  MIC: 0.02 µg/mL (≈ 0.0246 µM)
[8]
  MIC: 0.3 µg/mL (≈ 0.369 µM)
[9]
  MIC: 1.2 µg/mL (≈ 1.48 µM)
[10]
  MIC: 0.02 µg/mL (≈ 0.0246 µM)
[11]
  MIC: 0.6 µg/mL (≈ 0.738 µM)

## CC[C@H]1OC(=O)[C@H](C)C(=O)[C@H](C)[C@@H](O[C@@H]2O[C@H](C)C[C@H](N(C)C)[C@H]2O)[C@](C)(OC)C[C@@H](C)C(=O)[C@H](C)[C@H]2N(CCCCc3ccnc4ccccc34)C(=O)O[C@]12C
[12]
  MIC: 0.08 µg/mL (≈ 0.101 µM)
[13]
  MIC: 0.04 µg/mL (≈ 0.0503 µM)
[14]
  MIC: 0.02 µg/mL (≈ 0.0251 µM)
[15]
  MIC: 0.02 µg/mL (≈ 0.0251 µM)
[16]
  MIC: 40 µg/mL (≈ 50.3 µM)
[17]
  MIC: 1.2 µg/mL (≈ 1.51 µM)
[18]
  MIC: 1.2 µg/mL (≈ 1.51 µM)
[19]
  MIC: 1.2 µg/mL (≈ 1.51 µM)
[20]
  MIC: 0.02 µg/mL (≈ 0.0251 µM)
[21]
  MIC: 1.2 µg/mL (≈ 1.51 µM)
[22]
  MIC: 40 µg/mL (≈ 50.3 µM)

## CC[C@H]1OC(=O)[C@H](C)C(=O)[C@H](C)[C@@H](O[C@@H]2O[C@H](C)C[C@H](N(C)C)[C@H]2O)[C@](C)(OC)C[C@@H](C)C(=O)[C@H](C)[C@H]2N(CCCCn3cnc(-c4ccccc4)n3)C(=O)O[C@]12C
[1]
  MIC: 40 µg/mL (≈ 49.3 µM)
[2]
  MIC: 1.2 µg/mL (≈ 1.48 µM)
[3]
  MIC: 0.15 µg/mL (≈ 0.185 µM)
[4]
  MIC: 0.02 µg/mL (≈ 0.0246 µM)
[5]
  MIC: 40 µg/mL (≈ 49.3 µM)
[6]
  MIC: 0.3 µg/mL (≈ 0.369 µM)
[7]
  MIC: 0.04 µg/mL (≈ 0.0493 µM)
[8]
  MIC: 0.6 µg/mL (≈ 0.739 µM)
[9]
  MIC: 1.2 µg/mL (≈ 1.48 µM)
[10]
  MIC: 0.02 µg/mL (≈ 0.0246 µM)
[11]
  MIC: 1.2 µg/mL (≈ 1.48 µM)

## CC[C@H]1OC(=O)[C@H](C)C(=O)[C@H](C)[C@@H](O[C@@H]2O[C@H](C)C[C@H](N(C)C)[C@H]2OC(C)=O)[C@](C)(OC)C[C@@H](C)C(=O)/C(C)=C/[C@]1(C)OC(=O)n1ccnc1
[12]
  MIC: 0.15 µg/mL (≈ 0.213 µM)
[13]
  MIC: 0.08 µg/mL (≈ 0.113 µM)
[14]
  MIC: 0.02 µg/mL (≈ 0.0283 µM)
[15]
  MIC: 0.02 µg/mL (≈ 0.0283 µM)
[17]
  MIC: 10 µg/mL (≈ 14.2 µM)
[18]
  MIC: 2.5 µg/mL (≈ 3.54 µM)
[5]
  MIC: 40 µg/mL (≈ 56.7 µM)
[19]
  MIC: 10 µg/mL (≈ 14.2 µM)
[20]
  MIC: 0.08 µg/mL (≈ 0.113 µM)
[21]
  MIC: 10 µg/mL (≈ 14.2 µM)
[22]
  MIC: 20 µg/mL (≈ 28.3 µM)

## CC[C@H]1OC(=O)[C@H](C)C(=O)[C@H](C)[C@@H](O[C@@H]2O[C@H](C)C[C@H](N(C)C)[C@H]2O)[C@](C)(OC)C[C@@H](C)C(=O)[C@H](C)[C@H]2N(CCCCn3ccc4ccccc43)C(=O)O[C@]12C
[1]
  MIC: 10 µg/mL (≈ 12.8 µM)
[2]
  MIC: 2.5 µg/mL (≈ 3.19 µM)
[3]
  MIC: 0.08 µg/mL (≈ 0.102 µM)
[4]
  MIC: 0.02 µg/mL (≈ 0.0255 µM)
[5]
  MIC: 40 µg/mL (≈ 51 µM)
[6]
  MIC: 0.08 µg/mL (≈ 0.102 µM)
[7]
  MIC: 0.02 µg/mL (≈ 0.0255 µM)
[8]
  MIC: 2.5 µg/mL (≈ 3.19 µM)
[9]
  MIC: 0.6 µg/mL (≈ 0.765 µM)
[10]
  MIC: 0.04 µg/mL (≈ 0.051 µM)
[11]
  MIC: 2.5 µg/mL (≈ 3.19 µM)

## CC[C@H]1OC(=O)[C@H](C)C(=O)[C@H](C)[C@@H](O[C@@H]2O[C@H](C)C[C@H](N(C)C)[C@H]2O)[C@](C)(OC)C[C@@H](C)C(=O)[C@H](C)[C@H]2N(CCCCn3cnc(-c4ccccc4)c3)C(=O)O[C@]12C
[1]
  MIC: 40 µg/mL (≈ 49.3 µM)
[2]
  MIC: 1.2 µg/mL (≈ 1.48 µM)
[3]
  MIC: 0.3 µg/mL (≈ 0.37 µM)
[4]
  MIC: 0.02 µg/mL (≈ 0.0247 µM)
[5]
  MIC: 40 µg/mL (≈ 49.3 µM)
[6]
  MIC: 2.5 µg/mL (≈ 3.08 µM)
[7]
  MIC: 0.02 µg/mL (≈ 0.0247 µM)
[8]
  MIC: 2.5 µg/mL (≈ 3.08 µM)
[9]
  MIC: 2.5 µg/mL (≈ 3.08 µM)
[10]
  MIC: 0.08 µg/mL (≈ 0.0986 µM)
[11]
  MIC: 20 µg/mL (≈ 24.7 µM)

## CC[C@H]1OC(=O)[C@H](C)[C@@H](O[C@H]2C[C@@](C)(OC)[C@@H](O)[C@H](C)O2)[C@H](C)[C@@H](O[C@@H]2O[C@H](C)C[C@H](N(C)C)[C@H]2O)[C@](C)(O)C[C@@H](C)CN(C)[C@H](C)[C@@H](O)[C@]1(C)O [AZITHROMYCIN]
[12]
  MIC: 40 µg/mL (≈ 53.4 µM)
[23]
  ED50: 30 mg/kg
[13]
  MIC: 0.3 µg/mL (≈ 0.401 µM)
[14]
  MIC: 0.15 µg/mL (≈ 0.2 µM)
[15]
  MIC: 0.6 µg/mL (≈ 0.801 µM)
[24]
  ED50: > 50 mg/kg
[25]
  ED50: > 50 mg/kg
[26]
  ED50: 94 mg/kg
[16]
  MIC: 40 µg/mL (≈ 53.4 µM)
[17]
  MIC: 40 µg/mL (≈ 53.4 µM)
[18]
  MIC: 1.2 µg/mL (≈ 1.6 µM)
[19]
  MIC: 40 µg/mL (≈ 53.4 µM)
[20]
  MIC: 40 µg/mL (≈ 53.4 µM)
[27]
  ED50: 145 mg/kg
[21]
  MIC: 40 µg/mL (≈ 53.4 µM)
[28]
  ED50: > 100 mg/kg
[29]
  ED50: 56 mg/kg
[30]
  ED50: > 50 mg/kg
[22]
  MIC: 20 µg/mL (≈ 26.7 µM)
[31]
  ED50: 16 mg/kg
[32]
  ED50: 6 mg/kg
[33]
  ED50: > 50 mg/kg

## CC[C@H]1OC(=O)[C@H](C)C(=O)[C@H](C)[C@@H](O[C@@H]2O[C@H](C)C[C@H](N(C)C)[C@H]2O)[C@](C)(OC)C[C@@H](C)C(=O)[C@H](C)[C@H]2N(CCCCn3cnc(-c4cccnc4)c3)C(=O)O[C@]12C [TELITHROMYCIN]
[23]
  ED50: 10 mg/kg
[1]
  MIC: 10 µg/mL (≈ 12.3 µM)
[2]
  MIC: 0.15 µg/mL (≈ 0.185 µM)
[24]
  ED50: 15 mg/kg
[25]
  ED50: 4.5 mg/kg
[26]
  ED50: 57 mg/kg
[3]
  MIC: 0.08 µg/mL (≈ 0.0985 µM)
[4]
  MIC: 0.02 µg/mL (≈ 0.0246 µM)
[5]
  MIC: 40 µg/mL (≈ 49.3 µM)
[6]
  MIC: 0.02 µg/mL (≈ 0.0246 µM)
[27]
  ED50: 40 mg/kg
[7]
  MIC: 0.02 µg/mL (≈ 0.0246 µM)
[8]
  MIC: 0.08 µg/mL (≈ 0.0985 µM)
[9]
  MIC: 1.2 µg/mL (≈ 1.48 µM)
[10]
  MIC: 0.04 µg/mL (≈ 0.0493 µM)
[34]
  ED50: 6.5 mg/kg
[29]
  ED50: 68 mg/kg
[30]
  ED50: 4 mg/kg
[31]
  ED50: 16 mg/kg
[32]
  ED50: 1 mg/kg
[33]
  ED50: 4 mg/kg
[11]
  MIC: 0.08 µg/mL (≈ 0.0985 µM)
